Experimental data as given in ChEMBL document CHEMBL1908105, “UDP-glucuronosyltransferases and clinical drug-drug interactions” (Pharmacol Ther, 2005).
Where “and” joins values, the source holds several entries; their conditions need not be identical. Equal values may be shown once.

Tests used:
[1] = target: T1, UDP-glucuronosyltransferase 1A1 (Homo sapiens, UniProt P22309); assay: Inhibition of 4-methylumbelliferone glucuronidation by human recombinant UGT1A1
T1 sequence (P22309 whole entry): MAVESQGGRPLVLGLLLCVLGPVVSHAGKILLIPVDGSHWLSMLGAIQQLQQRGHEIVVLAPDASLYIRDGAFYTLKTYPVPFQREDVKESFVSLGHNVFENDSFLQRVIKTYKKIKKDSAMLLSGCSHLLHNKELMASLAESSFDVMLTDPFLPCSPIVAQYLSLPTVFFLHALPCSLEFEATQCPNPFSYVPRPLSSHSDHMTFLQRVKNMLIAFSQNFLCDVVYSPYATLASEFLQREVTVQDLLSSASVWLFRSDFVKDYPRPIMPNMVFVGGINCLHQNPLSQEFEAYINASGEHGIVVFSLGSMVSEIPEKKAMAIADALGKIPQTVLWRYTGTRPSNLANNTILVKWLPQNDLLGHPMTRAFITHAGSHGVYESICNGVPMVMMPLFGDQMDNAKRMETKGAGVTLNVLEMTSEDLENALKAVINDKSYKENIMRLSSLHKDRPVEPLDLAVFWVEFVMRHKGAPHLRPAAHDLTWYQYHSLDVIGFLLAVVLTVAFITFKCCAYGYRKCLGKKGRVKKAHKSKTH

[2] = Inhibition of codeine glucuronidation by human UGT enzymes from liver homogenate; type: tissue-based
[3] = target: T2, UDP-glucuronosyltransferase 1A3 (Homo sapiens, UniProt P35503); assay: (§1) Drug glucuronidation reaction catalyzed by human recombinant UGT1A3
T2 sequence (P35503 whole entry): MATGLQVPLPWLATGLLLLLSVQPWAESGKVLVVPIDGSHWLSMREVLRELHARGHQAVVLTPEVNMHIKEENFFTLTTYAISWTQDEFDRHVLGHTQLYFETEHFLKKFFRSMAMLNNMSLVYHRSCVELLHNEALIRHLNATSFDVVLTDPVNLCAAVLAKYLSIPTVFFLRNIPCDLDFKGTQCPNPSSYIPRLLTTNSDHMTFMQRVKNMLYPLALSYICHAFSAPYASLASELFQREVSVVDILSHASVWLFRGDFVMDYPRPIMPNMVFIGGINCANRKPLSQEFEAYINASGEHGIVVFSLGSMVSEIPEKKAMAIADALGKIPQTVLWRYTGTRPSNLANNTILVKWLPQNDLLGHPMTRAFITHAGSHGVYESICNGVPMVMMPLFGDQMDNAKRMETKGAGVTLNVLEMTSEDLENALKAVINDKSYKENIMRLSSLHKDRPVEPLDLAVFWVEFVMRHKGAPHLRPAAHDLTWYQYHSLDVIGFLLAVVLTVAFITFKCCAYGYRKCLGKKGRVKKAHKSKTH

[4] = target: UGT1A3 (Homo sapiens, UniProt P35503); assay: as §1; conditions: recombinant UGT1A3
[5] = target: T3, UGT1A9 (Homo sapiens, UniProt O60656); assay: (§2) Drug glucuronidation reaction catalyzed by human recombinant UGT1A9; conditions: recombinant UGT1A9
[6] = target: T4, UDP-glucuronosyltransferase 1A9 (Homo sapiens, UniProt O60656); assay: as §2
T4 sequence (O60656 whole entry): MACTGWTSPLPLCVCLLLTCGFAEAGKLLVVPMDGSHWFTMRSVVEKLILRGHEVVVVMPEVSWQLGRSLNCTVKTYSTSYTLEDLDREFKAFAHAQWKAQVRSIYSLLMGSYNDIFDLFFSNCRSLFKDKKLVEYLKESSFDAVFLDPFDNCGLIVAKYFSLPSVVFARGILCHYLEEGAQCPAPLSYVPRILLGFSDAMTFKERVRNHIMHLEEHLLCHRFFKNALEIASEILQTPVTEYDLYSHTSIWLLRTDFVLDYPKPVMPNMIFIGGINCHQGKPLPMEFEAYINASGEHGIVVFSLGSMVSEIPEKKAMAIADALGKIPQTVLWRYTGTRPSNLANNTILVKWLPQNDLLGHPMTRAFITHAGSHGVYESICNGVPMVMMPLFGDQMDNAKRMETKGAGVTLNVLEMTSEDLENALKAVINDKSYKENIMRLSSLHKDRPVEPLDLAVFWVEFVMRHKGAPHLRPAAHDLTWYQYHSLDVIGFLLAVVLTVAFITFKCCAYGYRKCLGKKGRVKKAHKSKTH

[7] = target: UDP-glucuronosyltransferase 1A7 (Homo sapiens, UniProt Q9HAW7); assay: Inhibition of 4-methylumbelliferone glucuronidation by human recombinant UGT1A7
[8] = target: T5, UGT2B7 (Homo sapiens, UniProt P16662); assay: (§3) Drug glucuronidation reaction catalyzed by human recombinant UGT2B7; conditions: recombinant UGT2B7
T5 sequence (P16662 whole entry): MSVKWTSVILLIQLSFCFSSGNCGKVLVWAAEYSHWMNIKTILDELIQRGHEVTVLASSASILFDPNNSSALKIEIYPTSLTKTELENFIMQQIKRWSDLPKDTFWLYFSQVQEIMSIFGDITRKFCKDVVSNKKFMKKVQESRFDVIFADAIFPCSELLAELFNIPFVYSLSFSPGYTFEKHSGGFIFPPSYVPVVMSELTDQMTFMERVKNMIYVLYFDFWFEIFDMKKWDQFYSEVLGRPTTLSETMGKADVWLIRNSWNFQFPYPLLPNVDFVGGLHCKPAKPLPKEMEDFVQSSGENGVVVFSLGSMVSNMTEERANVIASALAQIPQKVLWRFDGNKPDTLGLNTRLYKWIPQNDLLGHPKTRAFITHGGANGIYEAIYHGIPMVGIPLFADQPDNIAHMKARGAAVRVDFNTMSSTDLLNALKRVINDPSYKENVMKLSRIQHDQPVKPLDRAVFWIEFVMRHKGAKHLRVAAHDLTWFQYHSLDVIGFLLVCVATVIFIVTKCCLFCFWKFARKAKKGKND

[9] = target: T6, UDP-glucuronosyltransferase 2B7 (Homo sapiens, UniProt P16662); assay: as §3
T6 sequence (P16662 whole entry): T5 sequence (P16662 whole entry)

[10] = target: UDP-glucuronosyltransferase 1A10 (Homo sapiens, UniProt Q9HAW8); assay: Inhibition of 4-methylumbelliferone glucuronidation by human recombinant UGT1A10
[11] = target: T4, UDP-glucuronosyltransferase 1A9; assay: Inhibition of 4-methylumbelliferone glucuronidation by human recombinant UGT1A9
[12] = Inhibition of acetaminophen glucuronidation by human UGT enzymes from liver microsomes; design: species or system Microsome
[13] = target: T7, UDP-glucuronosyltransferase 1A6 (Homo sapiens, UniProt P19224); assay: Inhibition of 4-methylumbelliferone glucuronidation by human recombinant UGT1A6
[14] = Inhibition of AZT glucuronidation by human UGT enzymes from liver microsomes; design: species or system Microsome
[15] = Inhibition of ciramadol glucuronidation by human UGT enzymes from liver microsomes; design: species or system Microsome
[16] = Inhibition of 4-methylumbelliferone glucuronidation by human UGT enzymes from liver microsomes; design: species or system Microsome
[17] = Inhibition of morphine glucuronidation by human fetal-liver microsomes; design: species or system Microsome
[18] = target: UGT2B15 (Homo sapiens, UniProt P54855); assay: Inhibition of dihydrotestosterone (assayed at the Km) glucuronidation by human recombinant UGT2B15 (+/- 11% inhibition at 5mM VPA); conditions: recombinant UGT2B15, probe dihydrotestosterone
[19] = target: T6, UDP-glucuronosyltransferase 2B7; assay: Inhibition of AZT glucuronidation by human recombinant UGT2B7
[20] = target: T3, UGT1A9; assay: Inhibition of propofol (assayed at the Km) glucuronidation by human recombinant UGT1A9 (+/- 15% inhibition at 5mM VPA); conditions: recombinant UGT1A9, probe propofol
[21] = target: UDP-glucuronosyltransferase 2B28 (Homo sapiens, UniProt Q9BY64); assay: Drug glucuronidation reaction catalyzed by human recombinant UGT2B28
[22] = target: T8, UDP-glucuronosyltransferase 1A4 (Homo sapiens, UniProt P22310); assay: (§4) Drug glucuronidation reaction catalyzed by human recombinant UGT1A4
T8 sequence (P22310 whole entry): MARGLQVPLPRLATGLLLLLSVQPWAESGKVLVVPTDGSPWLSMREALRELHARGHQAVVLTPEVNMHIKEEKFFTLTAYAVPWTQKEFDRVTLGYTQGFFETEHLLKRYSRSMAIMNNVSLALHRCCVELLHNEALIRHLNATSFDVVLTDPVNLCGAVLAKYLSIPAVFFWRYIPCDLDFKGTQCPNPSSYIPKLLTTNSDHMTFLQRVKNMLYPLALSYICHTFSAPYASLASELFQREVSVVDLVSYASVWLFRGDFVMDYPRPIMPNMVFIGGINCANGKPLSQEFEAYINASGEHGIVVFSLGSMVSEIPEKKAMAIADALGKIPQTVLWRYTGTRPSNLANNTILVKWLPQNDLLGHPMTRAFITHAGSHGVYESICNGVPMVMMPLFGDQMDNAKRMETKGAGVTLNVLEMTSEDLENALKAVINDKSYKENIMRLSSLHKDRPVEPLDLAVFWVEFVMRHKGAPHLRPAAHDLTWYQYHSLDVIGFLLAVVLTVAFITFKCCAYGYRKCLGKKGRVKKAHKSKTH

[23] = target: UGT1A4 (Homo sapiens, UniProt P22310); assay: as §4; conditions: recombinant UGT1A4
[24] = target: T7, UDP-glucuronosyltransferase 1A6; assay: Drug glucuronidation reaction catalyzed by human recombinant UGT1A6
[25] = substrate: O=C1Nc2ccc(Cl)cc2C(c2ccccc2)=N[C@H]1O; assay: not read
[26] = substrate: CCN(CC)C(=O)/C(C#N)=C/c1cc(O)c(O)c([N+](=O)[O-])c1; assay: (§5) Drug glucuronidation reaction catalyzed by human recombinant UGT2B15
[27] = substrate: C[C@]12CC[C@H](O)C[C@@H]1CC[C@@H]1[C@@H]2CC[C@]2(C)[C@@H](O)CC[C@@H]12; assay: as §5
[28] = substrate: CCc1c2c(nc3ccc(O)cc13)-c1cc3c(c(=O)n1C2)COC(=O)[C@]3(O)CC; assay: as §5
[29] = substrate: CC(O)/C(=C(\c1ccccc1)c1ccc(OCCN(C)C)cc1)c1ccccc1; assay: as §5
[30] = substrate: Cc1ccc(C(=O)c2cc(O)c(O)c([N+](=O)[O-])c2)cc1; assay: as §5
[31] = substrate: CS(=O)(=O)c1ccc(C2=C(c3ccccc3)C(=O)OC2O)cc1; assay: as §5

T7 sequence (P19224 whole entry): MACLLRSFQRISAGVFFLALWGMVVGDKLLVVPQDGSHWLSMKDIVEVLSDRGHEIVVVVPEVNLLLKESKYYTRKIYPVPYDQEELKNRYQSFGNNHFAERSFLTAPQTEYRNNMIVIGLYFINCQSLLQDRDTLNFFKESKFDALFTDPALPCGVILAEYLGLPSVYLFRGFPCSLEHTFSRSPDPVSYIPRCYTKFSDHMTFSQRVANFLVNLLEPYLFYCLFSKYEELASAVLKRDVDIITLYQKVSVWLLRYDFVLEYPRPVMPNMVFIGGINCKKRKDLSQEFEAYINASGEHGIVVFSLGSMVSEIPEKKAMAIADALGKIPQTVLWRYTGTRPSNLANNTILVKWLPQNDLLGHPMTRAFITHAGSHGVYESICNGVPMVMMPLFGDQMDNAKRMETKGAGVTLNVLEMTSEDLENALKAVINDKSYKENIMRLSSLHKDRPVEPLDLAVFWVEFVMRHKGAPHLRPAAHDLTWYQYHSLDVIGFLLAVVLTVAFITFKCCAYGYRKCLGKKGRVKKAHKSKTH
UDP-glucuronosyltransferase 1A10, sequence (Q9HAW8 whole entry): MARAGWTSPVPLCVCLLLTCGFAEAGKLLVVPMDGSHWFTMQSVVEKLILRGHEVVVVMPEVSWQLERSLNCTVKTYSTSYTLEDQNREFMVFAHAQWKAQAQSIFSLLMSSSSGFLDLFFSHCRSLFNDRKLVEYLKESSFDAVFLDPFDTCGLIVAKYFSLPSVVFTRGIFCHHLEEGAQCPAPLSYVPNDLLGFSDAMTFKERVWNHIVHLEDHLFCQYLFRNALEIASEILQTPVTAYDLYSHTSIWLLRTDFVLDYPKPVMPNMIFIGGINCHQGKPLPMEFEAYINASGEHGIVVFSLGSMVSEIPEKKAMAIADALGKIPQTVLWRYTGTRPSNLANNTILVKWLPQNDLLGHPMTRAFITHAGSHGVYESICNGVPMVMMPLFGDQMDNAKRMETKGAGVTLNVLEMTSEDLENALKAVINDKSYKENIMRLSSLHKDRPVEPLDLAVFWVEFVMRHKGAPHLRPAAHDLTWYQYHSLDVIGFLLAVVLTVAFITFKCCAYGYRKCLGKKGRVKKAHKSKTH
UDP-glucuronosyltransferase 1A7, sequence (Q9HAW7 whole entry): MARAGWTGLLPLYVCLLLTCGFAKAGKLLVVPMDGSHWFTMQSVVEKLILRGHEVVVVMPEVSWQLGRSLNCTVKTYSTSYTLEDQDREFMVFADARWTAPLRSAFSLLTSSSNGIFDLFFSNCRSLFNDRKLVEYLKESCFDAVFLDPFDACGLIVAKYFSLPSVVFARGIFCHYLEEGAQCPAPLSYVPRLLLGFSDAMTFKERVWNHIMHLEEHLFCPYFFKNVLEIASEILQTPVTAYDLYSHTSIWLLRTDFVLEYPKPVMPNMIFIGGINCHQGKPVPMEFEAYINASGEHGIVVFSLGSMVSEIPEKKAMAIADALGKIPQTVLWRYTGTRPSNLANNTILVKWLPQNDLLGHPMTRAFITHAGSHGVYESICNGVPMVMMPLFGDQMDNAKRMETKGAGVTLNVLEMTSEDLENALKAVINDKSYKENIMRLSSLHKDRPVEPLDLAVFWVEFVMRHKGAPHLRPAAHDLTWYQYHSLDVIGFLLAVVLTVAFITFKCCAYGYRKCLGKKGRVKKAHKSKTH
UDP-glucuronosyltransferase 2B28, sequence (Q9BY64 whole entry): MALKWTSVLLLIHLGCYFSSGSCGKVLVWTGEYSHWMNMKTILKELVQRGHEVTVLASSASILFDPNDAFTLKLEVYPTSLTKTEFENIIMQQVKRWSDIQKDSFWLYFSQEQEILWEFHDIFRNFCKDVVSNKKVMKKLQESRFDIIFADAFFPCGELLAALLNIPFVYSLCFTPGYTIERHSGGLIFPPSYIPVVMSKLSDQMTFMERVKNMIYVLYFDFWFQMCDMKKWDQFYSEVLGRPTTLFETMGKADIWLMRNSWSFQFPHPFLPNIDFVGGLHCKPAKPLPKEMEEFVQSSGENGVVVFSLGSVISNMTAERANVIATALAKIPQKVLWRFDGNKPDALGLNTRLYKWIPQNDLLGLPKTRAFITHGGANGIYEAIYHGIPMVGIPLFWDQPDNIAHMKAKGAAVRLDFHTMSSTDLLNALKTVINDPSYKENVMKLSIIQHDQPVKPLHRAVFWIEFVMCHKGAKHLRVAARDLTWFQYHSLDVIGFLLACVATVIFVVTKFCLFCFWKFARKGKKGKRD

With `O=C(O)Cc1ccccc1Nc1c(Cl)cccc1Cl` [DICLOFENAC] the Ki [1] was 52 µM, the Ki [2] was 7.9 µM and the Vmax [3] was 142 pmol/min/mg protein. The Km [4] was 12 µM, the Km [5] was 16 µM and the Vmax [6] was 166 pmol/min/mg protein. It also gave a Ki [7] of 19 µM, a Km [8] of 13 µM and a Km [9] of 25 µM. The Ki [10] was 28 µM and the Ki [11] was 11 µM.

`CCCN(CCC)S(=O)(=O)c1ccc(C(=O)O)cc1` [PROBENECID] showed a Ki [1] of 221 µM, a Ki [12] of 1100 µM and a Ki [7] of 96 µM. The Ki [10] was 231 µM, the Ki [11] was 2450 µM and the Ki [13] was 1430 µM. The Ki [14] was 1600 µM.

In the case of `O=C1Nc2ccc(Cl)cc2C(c2ccccc2)=NC1O` (stereo unspecified) [OXAZEPAM], the Ki [15] is reported as 120 µM, the Ki [16] is reported as 188 µM and the Ki [17] is reported as 200 µM and 270 µM. It also gave a Ki [14] of 580 µM.

`CCCC(CCC)C(=O)O` [VALPROIC ACID] showed an inhibition at 5000 µM [18] of 41%, a Ki [19] of 1600 µM and an inhibition at 5000 µM [20] of 46%.

`C[C@]12CC[C@@H]3c4ccc(O)cc4CC[C@H]3[C@@H]1CC[C@@H]2O` [ESTRADIOL] showed a Vmax [21] of less than 1 pmol/min/mg protein.

Work on `Cc1cc2c(s1)Nc1ccccc1N=C2N1CCN(C)CC1` [OLANZAPINE] yielded a Vmax [22] of 2370 pmol/min/mg protein and a Km [23] of 227 µM.

For `CC(=O)Nc1ccc(O)cc1` [ACETAMINOPHEN], the Vmax [24] was 100 pmol/min/mg protein.

B1: UDP-glucuronosyltransferase 2B15 (Homo sapiens) (protein)
chain: MSLKWTSVFLLIQLSCYFSSGSCGKVLVWPTEYSHWINMKTILEELVQRGHEVTVLTSSASTLVNASKSSAIKLEVYPTSLTKNYLEDSLLKILDRWIYGVSKNTFWSYFSQLQELCWEYYDYSNKLCKDAVLNKKLMMKLQESKFDVILADALNPCGELLAELFNIPFLYSLRFSVGYTFEKNGGGFLFPPSYVPVVMSELSDQMIFMERIKNMIHMLYFDFWFQIYDLKKWDQFYSEVLGRPTTLFETMGKAEMWLIRTYWDFEFPRPFLPNVDFVGGLHCKPAKPLPKEMEEFVQSSGENGIVVFSLGSMISNMSEESANMIASALAQIPQKVLWRFDGKKPNTLGSNTRLYKWLPQNDLLGHPKTKAFITHGGTNGIYEAIYHGIPMVGIPLFADQHDNIAHMKAKGAALSVDIRTMSSRDLLNALKSVINDPVYKENVMKLSRIHHDQPMKPLDRAVFWIEFVMRHKGAKHLRVAAHNLTWIQYHSLDVIAFLLACVATVIFIITKFCLFCFRKLAKKGKKKKRD
With B1 the Km [25] was 35 µM and 29 µM, the Km [26] was 322 µM and the Vmax [26] was 2.4e-05 µmol/min/mg. The Km [27] was 15 µM, the Vmax [27] was 0.00098 µmol/min/mg and the Km [28] was 186 µM. The Vmax [28] was 2e-06 µmol/min/mg, the Km [29] was 7 µM and 18 µM and the Km [30] was 429 µM. It also gave a Vmax [30] of 2.4e-05 µmol/min/mg, a Km [31] of 286 µM and a Vmax [31] of 1.6e-05 µmol/min/mg.
